Results taken from the NIST ThermoML archive (doi:10.1016/j.jct.2015.06.023).

Legend:
[1] = Liquid; for mass density: 101.33 kPa, Vibrating tube method; for vapor or sublimation pressure: 363.2 K, Closed cell (Static) method
[2] = excess molar enthalpy (molar enthalpy of mixing); xn = mol fraction of the nth substance listed; details: 363.2 K, 100 kPa, Liquid, Flow calorimetry
[3] = activity coefficient (dimensionless); of the first substance listed, at infinite dilution; xn = mol fraction of the nth substance listed; details: 100 kPa, Liquid, Chromatography, x1 = 0

CCCCCC[n+]1ccccc1.O=S(=O)([N-]S(=O)(=O)C(F)(F)F)C(F)(F)F [1-hexylpyridinium bis(trifluromethylsulfonyl)imide]
[1]
Details	mass density [kg/m3]
293.15 K	1389.16
298.15 K	1384.56
299.15 K	1383.67
303.15 K	1380.22
313.15 K	1371.26
323.15 K	1362.38
333.15 K	1353.54
343.15 K	1344.76
353.15 K	1336.02

CCCCCC[n+]1ccccc1.O=S(=O)([N-]S(=O)(=O)C(F)(F)F)C(F)(F)F [1-hexylpyridinium bis(trifluromethylsulfonyl)imide] + CCCCO
[2]
Details	excess molar enthalpy [kcal/mol]
x2 = 0.043	0.0722
x2 = 0.083	0.14
x2 = 0.157	0.258
x2 = 0.222	0.356
x2 = 0.282	0.436
x2 = 0.384	0.55
x2 = 0.469	0.619
x2 = 0.572	0.661
x2 = 0.655	0.652
x2 = 0.743	0.594
x2 = 0.812	0.505
x2 = 0.868	0.399
x2 = 0.914	0.284
x2 = 0.952	0.168
x2 = 0.985	0.0549

CCCCCC[n+]1ccccc1.O=S(=O)([N-]S(=O)(=O)C(F)(F)F)C(F)(F)F [1-hexylpyridinium bis(trifluromethylsulfonyl)imide] + CCCO
[2]
Details	excess molar enthalpy [kcal/mol]
x2 = 0.052	0.0851
x2 = 0.1	0.165
x2 = 0.185	0.299
x2 = 0.259	0.402
x2 = 0.324	0.483
x2 = 0.432	0.589
x2 = 0.519	0.643
x2 = 0.621	0.661
x2 = 0.699	0.633
x2 = 0.779	0.56
x2 = 0.841	0.462
x2 = 0.889	0.358
x2 = 0.928	0.251
x2 = 0.961	0.146
x2 = 0.988	0.0477

c1ccccc1 [benzene] + CCCCCC[n+]1ccccc1.O=S(=O)([N-]S(=O)(=O)C(F)(F)F)C(F)(F)F
[3]
Details	activity coefficient
303.2 K	0.639
313.2 K	0.655
323.2 K	0.627
333.2 K	0.657
343.2 K	0.605

CCCCO [butan-1-ol]
Details	vapor or sublimation pressure [kPa]
[1]	34.47

CCCCO [butan-1-ol] + CCCCCC[n+]1ccccc1.O=S(=O)([N-]S(=O)(=O)C(F)(F)F)C(F)(F)F
[3]
Details	activity coefficient
303.2 K	2.74
313.2 K	1.72
323.2 K	1.59
333.2 K	1.42
343.2 K	1.25

C1CCCCC1 [cyclohexane] + CCCCCC[n+]1ccccc1.O=S(=O)([N-]S(=O)(=O)C(F)(F)F)C(F)(F)F
[3]
Details	activity coefficient
303.2 K	5.19
313.2 K	4.86
323.2 K	4.68
333.2 K	4.41
343.2 K	4.3

CCO [ethanol] + CCCCCC[n+]1ccccc1.O=S(=O)([N-]S(=O)(=O)C(F)(F)F)C(F)(F)F
[3]
Details	activity coefficient
303.2 K	1.64
313.2 K	1.35
323.2 K	1.28
333.2 K	1.13
343.2 K	0.996

CCCO [propan-1-ol]
Details	vapor or sublimation pressure [kPa]
[1]	76.56

CCCO [propan-1-ol] + CCCCCC[n+]1ccccc1.O=S(=O)([N-]S(=O)(=O)C(F)(F)F)C(F)(F)F
[3]
Details	activity coefficient
303.2 K	1.98
313.2 K	1.49
323.2 K	1.47
333.2 K	1.26
343.2 K	1.15

Cc1ccccc1 [toluene] + CCCCCC[n+]1ccccc1.O=S(=O)([N-]S(=O)(=O)C(F)(F)F)C(F)(F)F
[3]
Details	activity coefficient
303.2 K	0.828
313.2 K	0.868
323.2 K	0.82
333.2 K	0.847
343.2 K	0.882
